Assay results reported in PMC6994103 (PLoS Neglected Tropical Diseases, 2020).
Several values for one entry are separate records, joined by “and”; a condition that tells them apart may be missing. Identical values can stand only once.

System: T. cruzi epimastigotes Y strain
Assay: Synergism BZL with LTD-CPH-CFZ in epimastigotes, Y strain (CompuSyn)
Type: cell-based, Trypanosoma cruzi
Protocol: Parasites´ growth was evaluated at different concentrations of BZL, CV and CV structural analogues, and parasite proliferation was determined after 48 h. […] Growth was determined by counting in a Neubauer chamber and viability assays by using “Cell Titer 96 Aqueous One Solution Cell Proliferation Assay (MTS)” (Promega, Madison, WI, USA) according to the manufacturer’s instructions. Amastigotes were fixed with methanol, stained and mounted with Vectashield with DAPI (Vector Laboratories, Burlingame, CA, USA), and then the non-lysed cells were counted by using fluorescence microscopy. Calculations were performed using CompuSyn software (http://combosyn.com) which is based on the median-effect equation [48] and its extension, the combination index.

## O=C(Cn1ccnc1[N+](=O)[O-])NCc1ccccc1 [Benznidazole]
BZL 0.10 µM + LTD-CPH-CFZ 3.40 µM (1/25 IC50)
  DRI BZL: 16.63 ± 2.78
BZL 0.10 µM + LTD-CPH-CFZ 8.50 µM (1/10 IC50)
  DRI BZL: 73.67 ± 4.95
BZL 0.10 µM + LTD-CPH-CFZ 17.00 µM (1/5 IC50)
  DRI BZL: 374.17 ± 32.50
BZL 0.10 µM + LTD-CPH-CFZ 42.50 µM (1/2 IC50)
  DRI BZL: 923.66 ± 175.14
BZL 1.00 µM + LTD-CPH-CFZ 3.40 µM (1/25 IC50)
  DRI BZL: 5.12 ± 0.06
BZL 1.00 µM + LTD-CPH-CFZ 8.50 µM (1/10 IC50)
  DRI BZL: 13.27 ± 2.61
BZL 1.00 µM + LTD-CPH-CFZ 17.00 µM (1/5 IC50), listed as BZL
  DRI BZL: 54 and 53.83 ± 6.79
BZL 1.00 µM + LTD-CPH-CFZ 42.50 µM (1/2 IC50)
  DRI BZL: 157.01 ± 24.63
BZL 5.00 µM + LTD-CPH-CFZ 3.40 µM (1/25 IC50)
  DRI BZL: 2.45 ± 0.40
BZL 5.00 µM + LTD-CPH-CFZ 8.50 µM (1/10 IC50)
  DRI BZL: 5.48 ± 0.48
BZL 5.00 µM + LTD-CPH-CFZ 17.00 µM (1/5 IC50)
  DRI BZL: 10.31 ± 1.72
BZL 5.00 µM + LTD-CPH-CFZ 42.50 µM (1/2 IC50)
  DRI BZL: 63.09 ± 8.25
BZL 10.00 µM + LTD-CPH-CFZ 3.40 µM (1/25 IC50)
  DRI BZL: 3.89 ± 0.11
BZL 10.00 µM + LTD-CPH-CFZ 8.50 µM (1/10 IC50)
  DRI BZL: 5.45 ± 0.19
BZL 10.00 µM + LTD-CPH-CFZ 17.00 µM (1/5 IC50)
  DRI BZL: 10.20 ± 0.87
BZL 10.00 µM + LTD-CPH-CFZ 42.50 µM (1/2 IC50)
  DRI BZL: 45.77 ± 3.03
BZL 20.00 µM + LTD-CPH-CFZ 3.40 µM (1/25 IC50)
  DRI BZL: 5.88 ± 0.56
BZL 20.00 µM + LTD-CPH-CFZ 8.50 µM (1/10 IC50)
  DRI BZL: 7.44 ± 0.23
BZL 20.00 µM + LTD-CPH-CFZ 17.00 µM (1/5 IC50)
  DRI BZL: 10.94 ± 1.56
BZL 20.00 µM + LTD-CPH-CFZ 42.50 µM (1/2 IC50)
  DRI BZL: 68.51 ± 13.29
Same effect (Fa 0.112) as BZL 0.10 µM + LTD-CPH-CFZ 3.40 µM
  Dose BZL alone: 1.66 ± 0.28 µM
Same effect (Fa 0.257) as BZL 1.00 µM + LTD-CPH-CFZ 3.40 µM
  Dose BZL alone: 5.12 ± 0.06 µM
Same effect (Fa 0.324) as BZL 0.10 µM + LTD-CPH-CFZ 8.50 µM
  Dose BZL alone: 7.37 ± 0.49 µM
Same effect (Fa 0.430) as BZL 5.00 µM + LTD-CPH-CFZ 3.40 µM
  Dose BZL alone: 12.27 ± 2.01 µM
Same effect (Fa 0.447) as BZL 1.00 µM + LTD-CPH-CFZ 8.50 µM
  Dose BZL alone: 13.27 ± 2.61 µM
Same effect (Fa 0.609) as BZL 5.00 µM + LTD-CPH-CFZ 8.50 µM
  Dose BZL alone: 27.38 ± 2.41 µM
Same effect (Fa 0.673) as BZL 0.10 µM + LTD-CPH-CFZ 17.00 µM
  Dose BZL alone: 37.42 ± 3.25 µM
Same effect (Fa 0.682) as BZL 10.00 µM + LTD-CPH-CFZ 3.40 µM
  Dose BZL alone: 38.95 ± 1.06 µM
Same effect (Fa 0.732) as BZL 5.00 µM + LTD-CPH-CFZ 17.00 µM
  Dose BZL alone: 51.57 ± 8.60 µM
Same effect (Fa 0.740) as BZL 1.00 µM + LTD-CPH-CFZ 17.00 µM
  Dose BZL alone: 53.83 ± 6.79 µM
Same effect (Fa 0.743) as BZL 10.00 µM + LTD-CPH-CFZ 8.50 µM
  Dose BZL alone: 54.45 ± 1.86 µM
Same effect (Fa 0.821) as BZL 0.10 µM + LTD-CPH-CFZ 42.50 µM
  Dose BZL alone: 92.37 ± 17.51 µM
Same effect (Fa 0.835) as BZL 10.00 µM + LTD-CPH-CFZ 17.00 µM
  Dose BZL alone: 101.97 ± 8.68 µM
Same effect (Fa 0.852) as BZL 20.00 µM + LTD-CPH-CFZ 3.40 µM
  Dose BZL alone: 117.55 ± 11.14 µM
Same effect (Fa 0.877) as BZL 20.00 µM + LTD-CPH-CFZ 8.50 µM
  Dose BZL alone: 148.83 ± 4.56 µM
Same effect (Fa 0.881) as BZL 1.00 µM + LTD-CPH-CFZ 42.50 µM
  Dose BZL alone: 157.01 ± 24.63 µM
Same effect (Fa 0.909) as BZL 20.00 µM + LTD-CPH-CFZ 17.00 µM
  Dose BZL alone: 218.81 ± 31.25 µM
Same effect (Fa 0.933) as BZL 5.00 µM + LTD-CPH-CFZ 42.50 µM
  Dose BZL alone: 315.46 ± 41.27 µM
Same effect (Fa 0.951) as BZL 10.00 µM + LTD-CPH-CFZ 42.50 µM
  Dose BZL alone: 457.73 ± 30.35 µM
Same effect (Fa 0.981) as BZL 20.00 µM + LTD-CPH-CFZ 42.50 µM
  Dose BZL alone: 1370.11 ± 265.72 µM
